Measurements published in patent US11919857B2, “Phthalide derivative, preparation method and use thereof” (LANZHOU INSTITUTE OF CHEMICAL PHYSICS, CHINESE ACADEMY OF …, priority 2018, dated 2024).
One block for each compound: values may come before it.

Tests used:
[1] = system: acute cerebral ischemic infarction (MCAO model); assay: Cerebral infarction in acute ischemic stroke, suture-occluded MCAO model; assay type: in vivo, Wistar rat; details: for therapeutic effect on cerebral infarction (words): 3 days after modeling
Protocol: 1. Experimental animals: […] Wistar male rats (230-250 g), provided by Lanzhou Veterinary Research Institute, Chinese Academy of Agricultural Sciences. 2. […] MCAO model (Middle Cerebral Artery Obstruction in rats) was established through suture-occlusion, and the rats were intraperitoneally injected with 10% chloral hydrate at a dosage of 400 mg/kg for anesthetization. The rats were fixed with supine position method to expose the neck. It was shaved and the skin was cleaned for skin incision. Under gentle operations, the main blood vessels such as left common carotid artery, arteria carotis interna, and arteria carotis externa were separated. The arteria carotis externa was selected to be ligated and disconnected, to avoid the bleeding of the common carotid artery. The common carotid artery was temporarily clamped with an arterial clip. A small opening was cut at the end of arteria carotis […], and used for the placement of the suture-occlusion. The round head of the prepared suture-occlusion was held by the ophthalmic tweezer and gently inserted, with a controlled depth of about 1.8-2.0 cm. The incision was sutured conventionally. After 0.5 h of cerebral ischemia, the suture-occlusion was removed to restore the blood supply. At a certain time after administration, the rats were sacrificed. The brain tissue was stained with 0.5% 2,3,5-triphenyltetrazolium chloride […], and the cerebral infarction area was scanned and calculated, wherein the normal tissue was stained in red and the infarcted tissue was stained in white. 3. Animal grouping: The animals were grouped as follows: the model group (acute ischemia and hypoxia pathological model, administrated with an equal dosage of physiological saline containing 8% Tween-80), the sham operation group (not administrated, as the negative control, administrated with an equal dosage of physiological saline containing 8% Tween-80), the prevention group (administrated 3 days in advance), and treatment group (administrated for 3 days after the blood supply was restored from embolism). 4. Method of administration: […] Results: […] A. Negative model control, infarct area: 30.57%; B. […] C.

[2] = In vivo pharmacokinetics in rats (gavage and intravenous injection), plasma HPLC-DAD; parameters: species or system Wistar rats; T1/2ka: unit not given here; details: rat
Protocol: Certain amounts of N-cyclopropyl-3-n-butyl-3-hydroxy-ligusticum lactam and N-cyclopropyl-3-n-butyl-3-hydroxy-phthalide lactam standards were accurately weighed respectively, and dissolved and diluted in the methanol to obtain 2.0 mg/mL of standard stock solutions. Certain standard stock solutions were accurately weighed and mixed respectively, and diluted with methanol to […], 0.7813, 1.5625, 3.1250, 6.2500, 12.500, 25.0000, 50.0000, and 500.0 μg/mL. 20 uL of each sample was analyzed by HPLC system, to sequentially determine N-cyclopropyl-3-n-butyl-3-hydroxy-ligusticum lactam and N-cyclopropyl-3-n-butyl-3-hydroxy-phthalide lactam. The peak area (A) was linearly regressed with the concentration C (g/mL), to obtain the regression equation and linear range, detection limit (LOD), and quantification limit (LOQ).
1.2 Preparation method for test sample: The compound prepared according to Example 7 (the content of N-cyclopropyl-3-n-butyl-3-hydroxy-ligusticum lactam is 92.5%; and the content of the compound N-cyclopropyl-3-n-butyl-3-hydroxy-phthalide lactam is 7.5%) was prepared into the raw stock solution at a concentration of 15 mg/mL by 10% ethanol, 20% Tween 80, and 70% physiological saline. The rats were dosed based on the body weights, with a dosage of 90 mg/Kg by oral administration (by gavage) and a dosage of 40 mg/Kg by intravenous injection.
1.3 Pretreatment method for plasma sample: 0.5 mL of rat whole blood was taken and placed in a 1.5 mL centrifuge tube with 20 uL sodium heparin therein, and centrifuged at a high rotation rate of 4×10^3 r·min^−1 for 5 min. 200 μL of plasma was taken and 800 μL of dichloromethane was added. The mixture was vortexed and centrifuged for 10 min at a rotation rate of […]. The lower layer solution was separate and blown to dryness with nitrogen gas at room temperature, and then reconstituted with 300 μL of methanol. The solution was eluted, filtered, and dried to dryness with nitrogen. After adding 30 μL of methanol, the solution was centrifuged, and 20 μL of the supernatant was used to determine the peak areas by HPLC.
1.4 Determination of pharmacokinetic parameters of phthalide derivatives in rats. Twelve male Wistar rats were randomly divided into two groups, wherein 6 rats were administrated with 40 mg/kg of phthalide derivative (the intravenous injection group (i.v.)). At 0 (pre-dose), 0.167, 0.333, 0.5, 1, 2, 3, 4, and 6 hours after administration, about 500 μL of blood was collected from the Angulus oculis, respectively, and 200 μL of plasma was frozen after anticoagulation treatment and centrifugation. 6 rats in the gavage administration (po) group were administrated by 90 mg/kg of phthalide derivative. At 0 (pre-dose), 0.5, 1, 2, 3, 4, 6, 8, 10, and 12 h after administration, about 500 μL of blood was collected from the Angulus oculis, respectively, and 200 μL of plasma was frozen after anticoagulation treatment and centrifugation. The plasma samples were warmed to the room temperature before pretreatment, and 20 μL of the sample solutions were analyzed by liquid chromatography. The blood drug concentration at each time point was calculated according to the standard curve. The dose-time curve was fitted using DAS2.0 software and the pharmacokinetic parameters were calculated. FIGS. 18 and 19 show the dose-time curves by gavage administration and intravenous injection, respectively.

PC12 cells = assay: Protection against hydrogen peroxide-induced oxidative damage to PC12 nerve cells (MTT); assay type: cell-based; details: for protective effect on PC12 nerve cells against hydrogen peroxide (comparison in words): 2.5-50 μM, 250 μM H2O2, FIG. 16
Protocol: 2. Method: PC12 cells were cultured as follows. PC12 cells were inoculated into the high-glucose DMEM medium containing 10% fetal bovine serum, penicillin 100 U mL^−1, and streptomycin 100 μg mL^−1, and cultured in the cell incubator at 37° C. under 5% CO2. The medium was changed every other day. The cells were routinely trypsinized and passaged. The cells were used for experiments when they reached 70-80% confluence.
4. Oxidative damage modeling: PC12 cells in the logarithmic growth phase were inoculated into a 96-well cell culture plate at a density of 5×10^3 cells/well. H2O2 was added at different concentrations, and cultured for 4 h. MTT was added according to the above MTT assay, and A value of each well was measured. The H2O2 concentration at which the cell viability was reduced by 50% was finally selected as the modelling concentration.
Therefore, 250 μM was selected as the induction concentration of nerve cell oxidative damage.
5. Grouping and drug treatment: The experimental groups was divided into the normal blank control group, the H2O2 model group (250 μM), concentration groups (2.5 μM, 5.0 μM, 10 μM, 25 μM, 50 μM) for phthalides and their derivatives, and the positive control group (butylphthalide). Each group for phthalides and their derivatives as well as the positive control group were added with 250 μM H2O2, respectively. In the experiment, the solutions of phthalides and their derivatives were first added respectively, so that the final concentrations reached the corresponding values. After 4 h, H2O2 was added, and MTT was added after 24 h. The A value was measured to calculate the cell viability.

[3] = system: β-amyloid-induced neurotoxicity; details: through p38 and PI3K/Akt signaling pathways; cited from earlier work
[4] = treatment group, dosed for 3 days after modeling, 40 mg/kg, intraperitoneal injection
[5] = male, Wistar, in vivo, iv, 40 mg/kg
[6] = male, Wistar, in vivo, po, 90 mg/kg
[7] = Rattus norvegicus, PC-12, read-out: cell viability
[8] = po (gavage), 90 mg/kg of Example 7 mixture

- AUC(0-inf) [2, 5]: 12100 ng·h/mL
- AUC(0-t) [2, 5]: 6020 ng·h/mL
- CL1 [2, 5]: 5445.044 L/h/kg
- CL2 [2, 5]: 20518.475 L/h/kg
- K10 [2, 5]: 1.456 h⁻¹
- K12 [2, 5]: 5.488 h⁻¹
- K21 [2, 5]: 1.17 h⁻¹
- R_AUC(t/∞) [2, 5]: 49.7%
- V1 [2, 5]: 3739.124 L/kg
- V2 [2, 5]: 17537.504 L/kg
- t1/2α [2, 5]: 0.088 h
- t1/2β [2, 5]: 3.213 h
- AUC(0-inf) [2, 6]: 37100 ng·h/mL
- AUC(0-t) [2, 6]: 35300 ng·h/mL
- CL1 [2, 6]: 2719.904 L/h/kg
- CL2 [2, 6]: 1163.858 L/h/kg
- CL3 [2, 6]: 65.258 L/h/kg
- Cmax [2, 6]: 8820 ng/mL
- K10 [2, 6]: 3.763 h⁻¹
- K12 [2, 6]: 1.61 h⁻¹
- K13 [2, 6]: 0.09 h⁻¹
- K21 [2, 6]: 0.684 h⁻¹
- K31 [2, 6]: 0.272 h⁻¹
- Ka [2, 6]: 4.021 h⁻¹
- R_AUC(t/∞) [2, 6]: 95.4%
- T1/2ka [2, 6]: 0.172
- Tmax [2, 6]: 1.2 h
- V1 [2, 6]: 722.758 L/kg
- V2 [2, 6]: 1701.61 L/kg
- V3 [2, 6]: 240.115 L/kg
- t1/2α [2, 6]: 0.122 h
- t1/2β [2, 6]: 1.478 h
- t1/2γ [2, 6]: 2.643 h
Compound: CCCCC1(O)C2=C(C=CCC2)C(=O)N1C1CC1 (racemic) [ligustilide derivative, N-cyclopropyl-3-n-butyl-3-hydroxy-ligusticum lactam]
- infarct area ([1]; prevention group, pre-dosed for 3 days, modeling, dosed for another 3 days, intraperitoneal injection, model control 30.57%): 22%
- anti-embolic effect ([1]; prevention group, survived animals): relatively weak anti-embolic effects
- therapeutic effect on cerebral infarction (words) ([1]; treatment group, 40 mg/kg, intraperitoneal injection, 40 mg/kg): complete recanalization
- therapeutic effect on cerebral infarction (words) ([1]; treatment group, 40 mg/kg, intraperitoneal injection, listed as N-cyclopropyl-3-n-butyl-3-hydroxy-ligusticum lactam, 40 mg/kg): effectively prevent the occurrence of cerebral infarction
- infarct area, middle portion [1, 4]: 0%
- infarct area, right side, calculated according to the edema removal method [1, 4]: negative value
- infarct area, left side ([1]; treatment group, dosed for 3 days after modeling, 40 mg/kg, intraperitoneal injection, model control 30.57%): 4%
- protective effect on PC12 nerve cells against hydrogen peroxide (comparison in words) (PC12 cells): strongest protective effect
- viability at 2.5 µM (PC12 cells; [7]): 80%
- viability at 10 µM (PC12 cells; [7]): 95%

Compound: CCCCC1OC(=O)c2ccccc21 (centres unmarked) [butylphthalide, reference compound]
- cell viability (PC12 cells; drug positive control group, 250 μM H2O2, concentration not given): 68%

Compound: CCC/C=C1\OC(=O)C2=C1CCC=C2 [ligustilide, reference compound]
- concentration at which β-amyloid-induced neurotoxicity is inhibited [3]: 1 to 30 µM
- protective effect on PC12 nerve cells against hydrogen peroxide (comparison in words) (PC12 cells): stronger than that of n-butenylphthalide

Compound: CCCCC1(O)c2ccccc2C(=O)N1C1CC1 (centres unmarked) [n-butenylphthalide derivative, N-cyclopropyl-3-n-butyl-3-hydroxy-phthalide lactam]
- CL1 [2, 8]: 893.769 L/h/kg
- CL2 [2, 8]: 802.825 L/h/kg
- CL3 [2, 8]: -50.58 L/h/kg
- K10 [2, 8]: 1.689 h⁻¹
- K12 [2, 8]: 1.517 h⁻¹
- K13 [2, 8]: -0.096 h⁻¹
- K21 [2, 8]: 0.543 h⁻¹
- K31 [2, 8]: 0.167 h⁻¹
- Ka [2, 8]: 2.425 h⁻¹
- R_AUC(t/∞) [2, 8]: 89.9%
- T1/2ka [2, 8]: 0.286
- Tmax [2, 8]: 1.768 h
- V1 [2, 8]: 529.323 L/kg
- V2 [2, 8]: 1478.868 L/kg
- V3 [2, 8]: -302.598 L/kg
- t1/2α [2, 8]: 0.204 h
- t1/2β [2, 8]: 3.029 h
- t1/2γ [2, 8]: 3.513 h
- protective effect on PC12 nerve cells against hydrogen peroxide (comparison in words) (PC12 cells): almost the same protective effects
